Where “and” joins values, the source holds several entries; their conditions need not be identical. Equal entries are not always repeated. Entries after “also recorded” stand apart in the source; their conditions may differ.
Experiments:
GI transit = conditions: humans; cited from earlier work
colonic motility [1] = conditions: rodent models; cited from earlier work
[2] = test system: mouse distal colon circular muscle; experiment: Colon circular muscle isometric tension recordings, distal colon
Procedure: (§1) Mice were euthanized by cervical dislocation. The colon was dissected, flushed of its contents, and trimmed of mesentery. […] The tissues, 0.5 cm in length, were suspended vertically along the axis of the circular muscle with a metal triangle tied to a hook under 1 g of passive tension in 15 mL siliconized organ baths.
(§2) Data are presented as the mean±S.E.M, values of P≤0.05 were considered significant.

[3] = test system: mouse proximal colon circular muscle; experiment: Colon circular muscle isometric tension recordings, proximal colon
Procedure: as §1, §2

KOR = target: T1, KOR (Homo sapiens, UniProt P41145); conditions: NAP data from ref 9b, cited from earlier work
T1 construct: expressed in transfected cells; host or cells: CHO cells (membranes)
T1 sequence (P41145 whole entry): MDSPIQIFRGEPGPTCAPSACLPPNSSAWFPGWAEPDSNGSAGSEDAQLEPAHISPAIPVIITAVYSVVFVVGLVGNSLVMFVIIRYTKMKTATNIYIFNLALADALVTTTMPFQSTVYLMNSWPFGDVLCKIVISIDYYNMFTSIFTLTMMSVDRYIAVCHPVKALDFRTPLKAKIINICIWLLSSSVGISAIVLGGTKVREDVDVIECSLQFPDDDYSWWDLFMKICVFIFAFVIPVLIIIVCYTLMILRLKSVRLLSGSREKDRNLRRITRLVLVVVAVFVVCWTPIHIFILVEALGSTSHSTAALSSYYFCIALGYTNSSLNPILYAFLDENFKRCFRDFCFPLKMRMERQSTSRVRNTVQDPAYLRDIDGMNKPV

MOR = MOR (Mus musculus, UniProt P42866); conditions: relative to DAMGO, NAP data from ref 9b; cited from earlier work
Chain of MOR (P42866 whole entry): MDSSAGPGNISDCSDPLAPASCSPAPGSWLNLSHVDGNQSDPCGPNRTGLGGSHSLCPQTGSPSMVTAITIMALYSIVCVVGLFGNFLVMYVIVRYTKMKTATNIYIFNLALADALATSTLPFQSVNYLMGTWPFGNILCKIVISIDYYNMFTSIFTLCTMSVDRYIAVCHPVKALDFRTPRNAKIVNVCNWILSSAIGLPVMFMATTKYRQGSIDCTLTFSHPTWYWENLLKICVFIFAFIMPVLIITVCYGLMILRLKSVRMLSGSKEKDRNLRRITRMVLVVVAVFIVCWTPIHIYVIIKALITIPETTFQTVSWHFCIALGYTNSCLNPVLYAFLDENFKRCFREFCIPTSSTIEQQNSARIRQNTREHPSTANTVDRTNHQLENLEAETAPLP

[4] = test system: guinea pig ileum Longitudinal Muscle Myenteric Plexus (LMMP); experiment: Electrical field stimulated contractions in LMMP strips
Procedure: Male albino guinea pigs (350-450 g) were euthanized by asphyxiation with CO2. A segment of ileum was removed and placed in a dissection bath filled with pre-oxygenated Krebs' solution (118 mM NaCl, 4.6 mM KCl, 1.3 mM NaH2PO4, 1.2 mM MgSO4, 25 mM NaHCO3, 11 mM glucose, and 2.5 mM CaCl2). Longitudinal Muscle Myenteric Plexus (LMMP) strips were prepared as previously described.^26 Electrical field stimulation (EFS) (50 V, 7.5 Hz, unless stated otherwise) was applied through concentric electrodes over longitudinal muscle or L-type stimulating electrodes over circular muscle strips to produce neurogenic contractions/relaxations. Drugs were added in single or cumulative doses depending on the assay to determine their inhibitory effects on the neurogenic responses.

morphine antinociception = experiment: Warm water tail immersion (tail flick) test; assay type: in vivo, Swiss Webster mice; conditions: morphine alone, warm water tail flick
Procedure: Male Swiss Webster mice (Harlan Laboratories, Indianapolis, Ind.) weighing 25-30 g were housed 5 to a cage in animal care quarters and maintained at […] on a 12 h light-dark cycle. Food and water were available ad libitum. The mice were brought to a test room (22±2° C., 12 h light-dark cycle), marked for identification and allowed 18 h to recover from transport and handling. Protocols and procedures were approved by the Institutional Animal Care and Use Committee (IACUC) at Virginia Commonwealth University Medical Center and comply with the recommendations of the IASP (International Association for the Study of Pain).
The warm water tail-immersion test was performed according to previously described methods using a water bath with the temperature maintained at 56±0.1° C.^20 Briefly, before giving the mice injections, a baseline (control) latency was determined. Only mice with a control reaction time of 2 to 4 s were used. The average baseline latency for these experiments was 3.0±0.1 s. The test latency after drug treatment was assessed at the appropriate time, and a 10 s maximal cutoff time was imposed to prevent tissue damage. Antinociception was quantified according to established procedures as the percentage of maximum possible effect (% MPE), which was calculated as follows: % MPE=[(test latency−control latency)/(10−control latency)]×100.^21 Percentage MPE was calculated for each mouse, using at least six mice per group.
Intracerebroventricular (ICV) injections were performed as described previously.^22 Mice were anesthetized with 2.5% isoflurane and a horizontal incision was made in the scalp. A needle was inserted to a depth of 3 mm into the lateral ventrical (2 mm rostral and 2 mm lateral at a 45° angle from the bregma). At intervals, 5 μL injections of drug or vehicle were made using this guide insertion to the same depth using a needle with a guard in nonanesthetized animals.^22, 23 Animals underwent the anesthetized surgery in the morning of the experiment and were then injected with drug at intervals indicated in the text without additional anesthesia. Immediately after testing, the animals were euthanized to minimize any type of distress, according to IACUC guidelines.

colonic motility [5] = experiment: Colonic bead expulsion assay; assay type: in vivo, mice; conditions: morphine 3 mg/kg; naive mice 17 min
Procedure: Mice were habituated and fasted as described above for the gastrointestinal transit analysis. […] At 20 min post-injection, animals were anesthetized with isoflurane (1-2 min) to insert a single 2-mm glass bead into the distal colon at a distance of 3 cm from the anus. Bead insertion was accomplished using a glass rod with a fire-polished end to avoid tissue damage and marked at 3 cm.^25 After bead insertion, mice were placed in individual cages and the time to bead expulsion was monitored. Animals were monitored for a maximum of 2 h unless bead expulsion occurred sooner.

intestinal transit = experiment: Charcoal meal test for gastrointestinal transit; assay type: in vivo, mice; conditions: charcoal gavage, compound alone
Procedure: Forty-eight hours before testing, mice were placed in cages with raised mesh wire to suspend them above their bedding and prevent ingestion of feces or bedding. The animals were habituated for 24 h in the presence of food and water and then fasted for 24 h with free access to water as previously reported.^24 This time frame was chosen to deplete the intestine and colon of any feces. To maintain caloric intake and to avoid hypoglycemia, mice had access to a sugar water solution consisting of a final concentration of 5% dextrose for the first 8 h of the fasting period. […] At 30 min after the administration of the charcoal meal, the mice were euthanized by cervical dislocation, and the small intestine from the jejunum to the cecum was dissected and placed in cold saline to stop peristalsis. The distance traveled by the leading edge of the charcoal meal was measured relative to the total length of the small intestine, and the percentage of intestinal transit for each animal was calculated as percentage transit (charcoal distance)/(small intestinal length)×100. This is referred to as intestinal transit in the text.

CN(C(=O)C(c1ccccc1)c1ccccc1)[C@H](CN1CC[C@H](O)C1)c1ccccc1 [Asimadoline]
effect on GI transit (GI transit): did not alter GI transit

COC(=O)[C@@H]1C[C@H](OC(C)=O)C(=O)[C@H]2[C@@]1(C)CC[C@H]1C(=O)O[C@H](c3ccoc3)C[C@]21C [Salvinorin A]
effect on colonic / GI motility (colonic motility [1]): reduced colonic motility; also recorded: can reduce GI motility

O=C(NC1CCC2(O)C3Cc4ccc(O)c5c4C2(CCN3CC2CC2)C1O5)c1ccncc1 (stereo not drawn) [NAP, 17-Cyclopropylmethyl-3, 14beta-dihydroxy-4,5alpha-epoxy-6beta-(4′-pyridylcarboxamido)morphinan, reference compound]
inhibition of morphine-induced contractions ([2]; 1 nM antagonist, distal colon): neither NAP nor BNAP showed significant inhibition of morphine-induced contractions
antagonism of morphine effects ([2]; 10 nM antagonist, distal colon): neither NAP nor BNAP showed significant antagonism of morphine effects
morphine pD2 in presence of antagonist ([2]; 100 nM antagonist, distal colon (naive 6.0)): 5.3
contractions induced by compound alone ([2]; up to 30 μM, distal colon preparation): Neither BNAP nor NAP alone at concentrations up to 30 μM induced contractions
inhibition of morphine-induced contractions ([3]; 1 nM antagonist, proximal colon): neither NAP nor BNAP showed significant inhibition of morphine-induced contractions
morphine pD2 in presence of antagonist ([3]; 10 nM antagonist, proximal colon (naive 6.8)): 5.9
further reduction of morphine pD2 ([3]; 100 nM versus 10 nM antagonist, proximal colon): no further reduction of the morphine pD2
contractions induced by compound alone ([3]; up to 30 μM, proximal colon preparation): Neither BNAP nor NAP alone at concentrations up to 30 μM induced contractions
EC50 (KOR; 35S-GTP[γS]): 28.8 ± 14.4 nM
% max of agonist (KOR; relative to U50,488H): 45.5±4.4%
% max of agonist (MOR): 22.72±0.84% and 22.7 ± 0.8%

C[C@@H](NC(=O)[C@@H](N)Cc1ccc(O)cc1)C(=O)NCC(=O)N(C)[C@@H](Cc1ccccc1)C(=O)NCCO [DAMGO, reference compound]
pIC50 for inhibition of EFS contractions ([4]; guinea pig ileum LMMP): 7.67±0.03
effect of nor-BNI on agonist inhibition of EFS contractions ([4]; nor-BNI 0.1 μM, 15 min pretreatment): did not significantly effect DAMGO inhibition of EFS contractions

CN1CC[C@]23c4c5ccc(O)c4O[C@H]2[C@@H](O)C=C[C@H]3[C@H]1C5 [morphine, reference compound]
antinociception (morphine antinociception): dose dependently induced antinociception
bead expulsion time (colonic motility [5]): 75 min
reduction of intestinal motility (intestinal transit): 3 fold

From patent US20190308987A1, “DUAL MODULATORS OF BOTH MU AND KAPPA OPIOID RECEPTORS” (priority 2016, published 2019)
